target: BTK (Homo sapiens (Human), UniProt Q06187); assay: biochemical
Sequence (Q06187 whole entry, looked up, species assumed): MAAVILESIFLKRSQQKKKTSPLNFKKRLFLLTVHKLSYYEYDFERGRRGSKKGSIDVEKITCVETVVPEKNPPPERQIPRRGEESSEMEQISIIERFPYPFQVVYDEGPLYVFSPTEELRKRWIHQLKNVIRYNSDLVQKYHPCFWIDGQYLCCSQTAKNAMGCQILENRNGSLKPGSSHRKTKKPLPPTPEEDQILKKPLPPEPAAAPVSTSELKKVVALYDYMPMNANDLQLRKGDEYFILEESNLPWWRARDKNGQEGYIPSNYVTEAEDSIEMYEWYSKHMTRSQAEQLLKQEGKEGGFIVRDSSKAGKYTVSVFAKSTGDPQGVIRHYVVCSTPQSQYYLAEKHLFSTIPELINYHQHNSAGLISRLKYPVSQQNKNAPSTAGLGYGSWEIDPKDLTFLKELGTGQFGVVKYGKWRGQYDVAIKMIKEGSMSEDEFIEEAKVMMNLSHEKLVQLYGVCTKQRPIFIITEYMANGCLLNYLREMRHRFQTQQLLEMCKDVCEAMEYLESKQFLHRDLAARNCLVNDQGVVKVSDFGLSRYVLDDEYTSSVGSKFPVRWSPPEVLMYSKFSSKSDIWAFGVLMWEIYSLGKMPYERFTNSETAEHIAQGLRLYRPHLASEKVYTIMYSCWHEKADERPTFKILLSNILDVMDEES
Procedure: Btk kinase activity was determined using a homogenous time resolved fluorescence (HTRF) methodology. Measurements were performed in a reaction volume of 15 μL using 384-well assay plates. Kinase enzyme, inhibitor, ATP and 1 μM peptide substrate were incubated in a reaction buffer compose of Hepes50 mM (pH7.0), NaN3 0.02%, BSA 0.01%, Orthocanadate 0.1 mM. […] For each compound, enzyme activity as measured at various concentrations of compound, Negative control reactions were performed in the absence of inhibitor in two replicates and eight no enzyme controls were used to determine baseline fluorescence levels.

Row | Compound | IC50 [nM]
1 | CC#CC(=O)N1CC[C@@H](c2nc(-c3ccc(Oc4cccc(OC)c4F)cc3)c3cncc(OC4CCOC4)n23)C1 (stereo partly drawn) [Example 99, 1-((3R)-3-(1-(4-(2-fluoro-3-methoxyphenoxy)phenyl)-5-((tetrahydrofuran-3-yl)oxy)imidazo[1,5-a]pyrazin-3-yl)pyrrolidin-1-yl)but-2-yn-1-one] | 10 to 100
2 | C=CC(=O)N1CCC[C@H]1c1nc(-c2ccc(C(=O)Nc3ccccn3)cc2)c2cncc(C)n12 [Example 172, (S)-4-(3-(1-aeryloylpyrrolidin-2-yl)-5-methylimidazo [1,5-a]pyrazin-l-yl)-N-(pyridin-2-yl)benzamide] | 10 to 100
3 | CC#CC(=O)N1CCC[C@H]1c1nc(-c2ccc(COc3ccc(F)c(F)c3)cc2)c2cnccn12 [Example 132, (S)-l-(2-(1-(4-((3,4-difluorophenoxy)methyl)phenyl)imidazo[1,5-a]pyrazin-3-yl)pyrrolidin-1-yl)but-2-yn-1-one] | 1000 to 10000
4 | C=CC(=O)N1CC[C@@H](c2nc(-c3ccc(Oc4cccc(OC)c4F)cc3)c3cncc(OC(C)C)n23)C1 [Example 114, (R)-1-(3-(1-(4-(2-fluoro-3-methoxyphenoxy)phenyl)-5-isopropoxyimidazo[1,5-a]pyrazin-3-yl)pyrrolidin-1-yl)prop-2-en-1-one] | 10 to 100
5 | C=CC(=O)N1CCC[C@H]1c1nc(-c2ccc(OCc3cccc(Cl)c3)cc2)c2cnccn12 [Example 141, (S)-1-(2-(1-(4-((3-chlorobenzyl)oxy)phenyl)imidazo[1,5-a]pyrazin-3-yl)pyrrolidin-1-yl)prop-2-en-1-one] | 10 to 100
6 | CC#CC(=O)N1CCC[C@@H](c2nc(-c3ccc(Oc4cccc(OC)c4F)cc3)c3c(C)ncc(C)n23)C1 [Example 77, (R)-1-(3-(1-(4-(2-fluoro-3-methoxyphenoxy)phenyl)-5,8-dimethylimidazo[1,5-a]pyrazin-3-yl)piperidin-1-yl)but-2-yn-1-one] | 100 to 1000
7 | C=CC(=O)N1CCC[C@H]1c1nc(-c2ccc(Oc3ccc(OC)cc3)cc2)c2cnccn12 [Example 9, (S)-1-(2-(1-(4-(4-methoxyphenoxy)phenyl)imidazo[1,5-a]pyrazin-3-yl)pyrrolidin-1-yl)prop-2-en-1-one] | 10 to 100
8 | CC#CC(=O)N1CC[C@@H](c2nc(-c3ccc(Oc4cccc(OC)c4F)cc3)c3cncc(OC4CCC4)n23)C1 [Example 101, (R)-1-(3-(5-cyclobutoxy-1-(4-(2-fluoro-3-methoxyphenoxy)phenyl)imidazo[1,5-a]pyrazin-3-yl)pyrrolidin-1-yl)but-2-yn-1-one] | 10 to 100
9 | C=CC(=O)N1CCC[C@@H](c2nc(-c3ccc(C(=O)Nc4ccccn4)cc3)c3cncc(C)n23)C1 [Example 178, (R)-4-(3-(1-acryloylpiperidin-3-yl)-5-methylimidazo [1,5-a]pyrazin-1-yl)-N-(pyridin-2-yl)benzamide] | 100 to 1000
10 | C=CC(=O)N1CCCC[C@H]1c1nc(-c2ccc(Oc3cccc(C)c3)cc2)c2cnccn12 [Example 50, (S)-1-(2-(1-(4-(m-tolyloxy)phenyl)imidazo[1,5-a]pyrazin-3-yl)piperidin-1-yl)prop-2-en-1-one] | 10 to 100
11 | C=CC(=O)N1CCC[C@H]1c1nc(-c2ccc(Oc3cccc(OC)c3F)cc2)c2c(O)nccn12 [Example 36, (S)-1-(2-(1-(4-(2-fluoro-3-methoxyphenoxy)phenyl)-8-hydroxyimidazo[1,5-a]pyrazin-3-yl)pyrrolidin-1-yl)prop-2-en-1-one] | 10 to 100
12 | C=CC(=O)N1CCC[C@H]1c1nc(-c2ccc(C(=O)Nc3cccc(OC)c3F)cc2)c2cnccn12 [Example 165, (S)-4-(3-(1-acryloylpyrrolidin-2-yl)imidazo[1,5-a]pyrazin-1-yl)-N-(2-fluoro-3-methoxyphenyl)benzamide] | 100 to 1000
13 | C=CC(=O)N1CCC[C@H]1c1nc(-c2ccc(COc3cccc(OC)c3F)cc2)c2cnccn12 [Example 161, (S)-1-(2-(1-(4-((2-fluoro-3-methoxyphenoxy)methyl)phenyl)imidazo[1,5-a]pyrazin-3-yl)pyrrolidin-1-yl)prop-2-en-1-one] | 10 to 100
14 | CC#CC(=O)N1CCC[C@@H](c2nc(-c3ccc(Oc4cccc(OC)c4F)cc3)c3cncc(C)n23)C1 [Example 71, (R)-1-(3-(1-(4-(2-fluoro-3-methoxyphenoxy)phenyl)-5-methylimidazo[1,5-a]pyrazin-3-yl)piperidin-1-yl)but-2-yn-1-one] | 100 to 1000
15 | C=CC(=O)N1CCC[C@H]1c1nc(-c2ccc(Oc3cccc(F)c3)cc2)c2cnccn12 [Example 11, (S)-1-(2-(1-(4-(3-fluorophenoxy)phenyl)imidazo[1,5-a]pyrazin-3-yl)pyrrolidin-1-yl)prop-2-en-1-one] | 10 to 100
16 | CC#CC(=O)N1CCC[C@H]1c1nc(-c2ccc(Oc3ccccc3)cc2Cl)c2cnccn12 [Example 14, (S)-1-(2-(1-(2-chloro-4-phenoxyphenyl)imidazo[1,5-a]pyrazin-3-yl)pyrrolidin-1-yl)but-2-yn-1-one] | 1000 to 10000
17 | CC#CC(=O)N1CCC[C@@H](c2nc(-c3ccc(C(=O)Nc4ccccn4)cc3)c3c(C)ncc(C)n23)C1 [Example 185, (R)-4-(3-(1-(but-2-ynoyl)piperidin-3-yl)-5,8-dimethylimidazo[1,5-a]pyrazin-1-yl)-N-(pyridin-2-yl)benzamide] | 100 to 1000

Row | Compound | IC50 [nM]
18 | CC#CC(=O)N1CCC[C@H]1c1nc(-c2ccc(C(=O)Nc3cccc(OC)c3F)cc2)c2cnccn12 [Example 164, (S)-4-(3-(1-(But-2-ynoyl)pyrrolidin-2-yl)imidazo[1,5-a]pyrazin-1-yl)-N-(2-fluoro-3-methoxyphenyl)benzamide] | 1000 to 10000
19 | C=CC(=O)N1CCCC[C@H]1c1nc(-c2ccc(COc3ccc(F)c(F)c3)cc2)c2c(C)nccn12 [Example 150, (S)-1-(2-(1-(4-((3,4-difluorophenoxy)methyl)phenyl)-8-methylimidazo[1,5-a]pyrazin-3-yl)piperidin-1-yl)prop-2-en-1-one] | 10 to 100
20 | CC#CC(=O)N1CCC[C@H]1c1nc(-c2ccc(COc3cccc(F)c3)cc2)c2cnccn12 [Example 147, (S)-1-(2-(1-(4-((3-fluorophenoxy)methyl)phenyl)imidazo[1,5-a]pyrazin-3-yl)pyrrolidin-1-yl)but-2-yn-1-one] | 1000 to 10000
21 | CC#CC(=O)N1CCC[C@H]1c1nc(-c2ccc(Oc3ccccc3OC)cc2)c2cnccn12 [Example 24, (S)-1-(2-(1-(4-(2-methoxyphenoxy)phenyl)imidazo[1,5-a]pyrazin-3-yl)pyrrolidin-1-yl)but-2-yn-1-one] | 1000 to 10000
22 | C=CC(=O)N1CCCC[C@H]1c1nc(-c2ccc(C(=O)Nc3ccccn3)cc2)c2cncc(C)n12 [Example 186, (S)-4-(3-(1-acryloylpiperidin-2-yl)-5-methylimidazo [1,5-a]pyrazin-1-yl)-N-(pyridin-2-yl)benzamide] | 100 to 1000
23 | CC#CC(=O)N1CC[C@@H](c2nc(-c3ccc(Oc4cccc(OC)c4F)cc3)c3c(CCC)nccn23)C1 [Example 110, (R)-1-(3-(1-(4-(2-fluoro-3-methoxyphenoxy)phenyl)-8-propylimidazo[1,5-a]pyrazin-3-yl)pyrrolidin-1-yl)but-2-yn-1-one] | 1000 to 10000
24 | CC#CC(=O)N1CCC[C@H]1c1nc(-c2ccc(OCc3cccc(F)c3F)cc2)c2cnccn12 [Example 127, (S)-1-(2-(1-(4-((2,3-difluorobenzyl)oxy)phenyl)imidazo[1,5-a]pyrazin-3-yl)pyrrolidin-1-yl)but-2-yn-1-one] | 1000 to 10000
25 | COc1cccc(Oc2ccc(-c3nc([C@@H]4CCN(C(=O)/C(C#N)=C/C(C)(C)C)C4)n4ccnc(C)c34)cc2)c1F [Example 88, (R,E)-2-(3-(1-(4-(2-fluoro-3-methoxyphenoxy)phenyl)-8-methylimidazo[1,5-a]pyrazin-3-yl)pyrrolidine-1-carbonyl)-4,4-dimethylpent-2-enenitrile] | 10 to 100
26 | CC#CC(=O)N1CCC[C@H]1c1nc(-c2ccc(Oc3cccc(OC)c3C)cc2)c2cnccn12 [Example 21, (S)-1-(2-(1-(4-(3-methoxy-2-methylphenoxy)phenyl)imidazo[1,5-a]pyrazin-3-yl)pyrrolidin-1-yl)but-2-yn-1-one] | 100 to 1000
27 | CC#CC(=O)N1CCC[C@H]1c1nc(-c2ccc(OCc3cccc(F)c3)cc2)c2cnccn12 [Example 138, (S)-1-(2-(1-(4-((3-fluorobenzyl)oxy)phenyl)imidazo[1,5-a]pyrazin-3-yl)pyrrolidin-1-yl)but-2-yn-1-one] | 1000 to 10000
28 | C=CC(=O)N1CC[C@@H](c2nc(-c3ccc(Oc4cccc(OC)c4F)cc3)c3cncc(C)n23)C1 [Example 72, (R)-1-(3-(1-(4-(2-fluoro-3-methoxyphenoxy)phenyl)-5-methylimidazo[1,5-a]pyrazin-3-yl)pyrrolidin-1-yl)prop-2-en-1-one] | 10 to 100
29 | CC#CC(=O)N1CCCC[C@H]1c1nc(-c2ccc(C(=O)Nc3ccccn3)cc2)c2cnccn12 [Example 169, (S)-4-(3-(1-(but-2-ynoyl)piperidin-2-yl)imidazo [1,5-a]pyrazin-1-yl)-N-(pyridin-2-yl)benzamide] | 100 to 1000
30 | CC#CC(=O)N1CCCC[C@H]1c1nc(-c2ccc(Oc3cccc(OC)c3F)cc2)c2c(C)ncc(C)n12 [Example 81, (S)-1-(2-(1-(4-(2-fluoro-3-methoxyphenoxy)phenyl)-5,8-dimethylimidazo[1,5-a]pyrazin-3-yl)piperidin-1-yl)but-2-yn-1-one] | 100 to 1000
31 | CC#CC(=O)N1CCCC[C@H]1c1nc(-c2ccc(Oc3cccc(Cl)c3F)cc2)c2c(C)nccn12 [Example 43, (S)-1-(2-(1-(4-(3-chloro-2-fluorophenoxy)phenyl)-8-methylimidazo[1,5-a]pyrazin-3-yl)piperidin-1-yl)but-2-yn-1-one] | 10 to 100
32 | CC#CC(=O)N1CC[C@@H](c2nc(-c3ccc(C(=O)Nc4ccccn4)cc3)c3cncc(C)n23)C1 [Example 181, (R)-4-(3-(1-(but-2-ynoyl)pyrrolidin-3-yl)-5-methylimidazo[1,5-a]pyrazin-1-yl)-N-(pyridin-2-yl)benzamide] | 1000 to 10000
33 | CC#CC(=O)N1CCCC[C@H]1c1nc(-c2ccc(Oc3cccc(Cl)c3F)cc2)c2cnccn12 [Example 47, (S)-1-(2-(1-(4-(3-chloro-2-fluorophenoxy)phenyl)imidazo[1,5-a]pyrazin-3-yl)piperidin-1-yl)but-2-yn-1-one] | 100 to 1000

Source: US10933063B2 (priority 2017, dated 2021)
